# Values of other authors as cited in patent US20250288604A1, “SUGAR-CONJUGATED LIPID NANOPARTICLES FOR TARGETED DELIVERY OF SIRNA TO HEPATOCYTES” (University of Virginia Patent Foundation, priority 2022, published 2025).
# Settings: single ionizable lipid
row,pKa,Structure (SMILES)
1,6.09,CCCCCCCCC(CCCCCC)C(=O)OCCCCCCN(CCCCO)CCCCCCOC(=O)C(CCCCCC)CCCCCCCC (stereo not drawn) [ALC-0315]
2,6.44,"CCCCC/C=C\C/C=C\CCCCCCCCC(CCCCCCCC/C=C\C/C=C\CCCCC)OC(=O)CCCN(C)C [DLinMc3DMA, (6Z,9Z,28Z,31Z)-Heptatriaconta-6,9,28,31-tetraen-19-yl 4-(dimethylamino) butanoate]"
3,6.75,CCCCCCCCCCCOC(=O)CCCCCN(CCO)CCCCCCCC(=O)OC(CCCCCCCC)CCCCCCCC [SM-102]
